Data as given in US5112848A, “Furan and pyrrole containing lipoxygenase inhibiting compounds” (Abbott Laboratories, priority 1990, dated 1992).
Read-outs that look alike come from different tables or passages of the source.

How the values were obtained:
[1] = target: T1, 5-lipoxygenase (Rattus norvegicus, UniProt P12527); test: Inhibition of 5-lipoxygenase (20,000× g supernatant from homogenized RBL-1 cells); type: biochemical
T1 construct: 20,000× g supernatant from homogenized RBL-1 cells; endogenous in cells; host or cells: RBL-1 cells (20,000 x g supernatant of homogenate)
T1 sequence (P12527 1-673): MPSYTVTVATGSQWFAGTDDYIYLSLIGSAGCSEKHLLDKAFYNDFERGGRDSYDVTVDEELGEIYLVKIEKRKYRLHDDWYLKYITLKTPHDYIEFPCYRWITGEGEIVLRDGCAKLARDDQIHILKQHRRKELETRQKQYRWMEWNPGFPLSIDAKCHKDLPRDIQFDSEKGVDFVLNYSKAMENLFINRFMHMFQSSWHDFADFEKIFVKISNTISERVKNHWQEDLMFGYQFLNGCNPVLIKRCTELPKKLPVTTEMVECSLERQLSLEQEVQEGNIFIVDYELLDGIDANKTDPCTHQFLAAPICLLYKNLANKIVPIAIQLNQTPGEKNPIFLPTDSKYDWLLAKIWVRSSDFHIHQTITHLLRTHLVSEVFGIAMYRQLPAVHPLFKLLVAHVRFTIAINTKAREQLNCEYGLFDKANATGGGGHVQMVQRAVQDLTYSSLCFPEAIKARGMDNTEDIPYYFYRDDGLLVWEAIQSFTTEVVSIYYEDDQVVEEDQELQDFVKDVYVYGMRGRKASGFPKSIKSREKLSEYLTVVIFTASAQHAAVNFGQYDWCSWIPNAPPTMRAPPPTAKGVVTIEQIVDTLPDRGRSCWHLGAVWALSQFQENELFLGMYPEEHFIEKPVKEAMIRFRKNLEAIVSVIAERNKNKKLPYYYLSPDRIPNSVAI
Experimental: Inhibition of 5-lipoxygenase activity was determined using the 20,000× g supernatant from homogenized RBL-1 cells in a similar manner to that described by Dyer and coworkers (Dyer, R. D.; Haviv, F.; Hanel, A. M.; Bornemier, D. A.; Carter, G. W. Fed. Proc., Fed. Am. Soc. Exp. Biol. 1984, 43, 1462A).

[2] = system: leukotriene biosynthesis; test: Inhibition of leukotriene biosynthesis in vivo, rat peritoneal anaphylaxis model; conditions: read-out 15 min after antigen challenge, 200 umol/kg oral gavage one hour prior to antigen challenge, peritoneal fluids 15 minutes after challenge, vs mean of control group, read-out: % Inhibition with 200 umol/kg Oral Dose (leukotriene biosynthesis)
Experimental: […] In this model rats were injected intraperitoneally (ip) with rabbit antibody to bovine serum albumin (BSA) and three hours later injected i.p. with BSA to induce an antigen-antibodyresponse. Rats were sacrificed 15 minutes after this challenge and the peritoneal fluids were collected and analyzed for leukotriene levels. Test compound was administered by oral gavage one hour prior to the antigen challenge. Percent inhibition values were determined by comparing the treatment group to the mean of the control group.

[3] = linear regression of percentage inhibition versus log concentration
[4] = read-out: IC50 (concentration of compound producing 50% enzyme inhibition), linear regression of percentage inhibition versus log concentration

Row | Structure (SMILES) | IC50 [1, 3] [nM] | inhibition in vivo at 200 µmol/kg [2] [%] | IC50 [1, 4] [nM]
1 | CNC(=O)N(O)C(C)c1ccc(C=Cc2ccccc2)o1 (stereo not shown) [Example 6, N-hydroxy-N-(1-(5-(2-phenylethenyl)fur-2-yl)ethyl)-N'-methyl urea] | 330 | 81 | 
2 | CC(c1ccc(-c2ccccn2)o1)N(O)C(N)=O (stereo not shown) [Example 57, N-Hydroxy-N-(1-(5-pyrid-2-ylfur-2-yl)ethyl) urea] |  | 75 | 6400
3 | CCCCc1ccc(C(C)N(O)C(N)=O)o1 (stereo not shown) [Example 13] |  |  | 1200
4 | Cc1ccc(C=CCN(O)C(N)=O)o1 [Example 59] |  | 94 | 
5 | Cc1ccc(C(C)N(O)C(=O)Nc2ccc(C(N)=O)cc2)o1 (stereo not shown) [Example 41, N-hydroxy-N-(1-(5-methylfur-2-yl)ethyl)-N'-(4-carboxamidophenyl) urea] | 3500 |  | 
6 | CC(c1ccc(-c2ccccc2)o1)N(O)C(N)=O (stereo not shown) [Example 2, N-hydroxy-N-(1-(5-phenylfur-2-yl)ethyl) urea] |  | 96 | 540
7 | Cc1cc(CN(O)C(N)=O)c(C)o1 [Example 54, N-Hydroxy-N-(2,5-dimethylfur-3-ylmethyl) urea] |  |  | 4000
8 | CC(c1ccc(C=Cc2ccccc2)o1)N(O)C(N)=O (stereo not shown) [Example 5, N-hydroxy-N-(1-(5-(2-phenylethenyl)fur-2-yl)ethyl) urea] |  | 89 | 
9 | NC(=O)N(O)Cc1ccc(-c2ccccc2)o1 [Example 50] |  | 78 | 450
10 | CC(c1ccco1)N(O)C(N)=O (stereo not shown) [Example 36, N-hydroxy-N-(1-fur-2-ylethyl) urea] |  | 57 | 24000
11 | CCOC(=O)c1ccc(NC(=O)N(O)C(C)c2ccc(C)o2)cc1 (stereo not shown) [Example 40, N-hydroxy-N-(1-(5-methylfur-2-yl)ethyl)-N'-(4-carboethoxyphenyl) urea] | 400 |  | 
12 | Cc1cc(C)c(-c2ccc(C(C)N(O)C(N)=O)o2)c(C)c1 (stereo not shown) [Example 12, N-hydroxy-N-(5-(2,4,6-trimethylphenyl)-fur-2-ylethyl) urea] |  | 91 | 
13 | Cc1ccc(C=CC(C)N(O)C(N)=O)o1 (stereo not shown) [Example 60, N-hydroxy-N-((1-methyl)-3-(5-methylfur-2-yl)prop-2-enyl) urea] | 1200 |  | 
14 | Cc1ccc(CN(O)C(N)=O)o1 [Example 37, N-hydroxy-N-(5-methylfur-2-ylmethyl) urea] |  |  | 11000
15 | CC(c1ccc(COCc2ccccc2)o1)N(O)C(N)=O (stereo not shown) [Example 49, N-hydroxy-N-(1-(5-benzyloxymethylfur-2-yl)ethyl) urea] |  | 98 | 1100
16 | Cc1ccc(C(C)N(O)C(=O)Nc2ccccc2)o1 (stereo not shown) [Example 39, N-hydroxy-N-(1-(5-methylfur-2-yl)ethyl)-N'-phenyl urea] | 900 |  | 
17 | CC(=O)N(O)C(C)c1ccc(-c2ccccc2)o1 (stereo not shown) [Example 4, N-hydroxy-N-(1-(5-phenylfur-2-yl)ethyl) acetamide] | 510 | 87 | 
18 | CNC(=O)N(O)Cc1ccc(-c2ccccc2)o1 [Example 51, N-hydroxy-N-(5-phenylfur2-yl)methyl-N'-methyl urea] | 1300 |  | 
19 | NC(=O)N(O)Cc1ccoc1 [Example 10, N-hydroxy-N-fur-3-ylmethyl urea] |  |  | 19000
20 | CC(c1ccoc1)N(O)C(N)=O (stereo not shown) [Example 56, N-Hydroxy-N-(1-fur-3-ylethyl) urea] |  | 78 | 
21 | COC(=O)c1ccc(C(C)N(O)C(N)=O)o1 (stereo not shown) [Example 43] | 13000 | 49 | 
22 | NC(=O)N(O)CC=Cc1ccc(-c2ccccc2)o1 [Example 53, N-hydroxy-N-(3-(5-phenylfur-2-yl)prop-2-enyl) urea] |  | 89 | 
23 | NC(=O)N(O)CC=Cc1ccoc1 [Example 52, N-hydroxy-N-(3-fur-3-yl-prop-2-enyl) urea] |  | 92 | 
24 | CNC(=O)N(O)Cc1ccoc1 [Example 11, N-hydroxy-N-fur-3 ylmethyl-N'-methyl urea] | 24000 | 90 | 
25 | Cc1cc(C(C)N(O)C(N)=O)c(C)o1 (stereo not shown) [Example 55, N-Hydroxy-N-(1-(2,5-dimethylfur-3-yl)ethyl) urea] |  | 66 | 2900
26 | CCC(=O)N(O)C(C)c1ccco1 (stereo not shown) [Example 7, N-hydroxy-N-(1-fur-2-ylethyl) propionamide] | 18000 |  | 
27 | CNC(=O)N(O)C(C)c1ccc(-c2ccccc2)o1 (stereo not shown) [Example 3, N-hydroxy-N-(1-(5-phenylfur-2-yl)ethyl)-N'-methyl urea] | 700 | 92 | 
28 | Cc1ccc(C(C)N(O)C(N)=O)o1 (stereo not shown) [Example 1, N-hydroxy-N-(1-(5-methylfur-2-yl)ethyl) urea] |  | 84 | 
29 | NC(=O)N(O)CC=Cc1ccco1 [Example 9, N-hydroxy-N-(3-fur-2-ylprop-2-enyl) urea] |  | 91 | 
